# Data: ChEMBL document CHEMBL5154845, “Dual-acting antitumor agents targeting the A2A adenosine receptor and histone deacetylases: Design and synthesis of 4-(furan-2-yl)-1H-pyrazolo[3,4-d]pyrimidin-6-amine derivatives” (Eur J Med Chem, 2022)
# Active and inactive are the calls of the source. The rule behind the calls is not given here.
# What was measured:
# [1] = target: Adenosine receptor A2a (Homo sapiens, UniProt P29274); experiment: Displacement of [3H][…] from human A2AAR incubated for 60 mins by scintillation counter analysis
# [2] = target: T1, Adenosine receptor A2b (Homo sapiens, UniProt P29275); experiment: Displacement of [3H]DPCPX from human A2BAR incubated for 60 mins by scintillation counter analysis
# T1 sequence (P29275 whole entry): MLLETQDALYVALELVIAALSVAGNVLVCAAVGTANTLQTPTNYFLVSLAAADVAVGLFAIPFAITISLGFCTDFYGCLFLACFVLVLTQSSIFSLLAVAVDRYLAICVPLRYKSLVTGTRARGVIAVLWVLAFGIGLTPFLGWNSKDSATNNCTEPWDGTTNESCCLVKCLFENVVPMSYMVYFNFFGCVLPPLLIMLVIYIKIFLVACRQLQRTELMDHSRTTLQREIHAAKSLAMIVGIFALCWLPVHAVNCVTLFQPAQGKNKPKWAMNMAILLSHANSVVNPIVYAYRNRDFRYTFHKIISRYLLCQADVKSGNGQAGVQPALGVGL
# [3] = target: Histone deacetylase 3 (Homo sapiens, UniProt O15379); experiment: Inhibition of HDAC3 (unknown origin) using trypsin and LGK(Ac)-AMC as substrates incubated for 1 hr and measured by fluorescence assay
# [4] = target: T2, Histone deacetylase 8 (Homo sapiens, UniProt Q9BY41); experiment: Inhibition of HDAC8 (unknown origin) using trypsin and LGK(Ac)-AMC as substrates incubated for 1 hr and measured by fluorescence assay
# T2 sequence (Q9BY41 whole entry): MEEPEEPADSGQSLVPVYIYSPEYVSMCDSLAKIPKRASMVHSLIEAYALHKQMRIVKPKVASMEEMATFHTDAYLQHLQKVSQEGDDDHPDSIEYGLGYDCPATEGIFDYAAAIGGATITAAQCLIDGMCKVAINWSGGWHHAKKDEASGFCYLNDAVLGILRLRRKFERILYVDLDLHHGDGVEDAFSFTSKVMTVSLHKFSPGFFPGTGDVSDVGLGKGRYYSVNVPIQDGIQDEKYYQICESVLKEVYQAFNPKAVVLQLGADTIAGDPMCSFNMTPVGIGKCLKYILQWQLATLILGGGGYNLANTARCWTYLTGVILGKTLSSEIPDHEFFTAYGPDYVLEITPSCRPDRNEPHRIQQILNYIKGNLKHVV
# [5] = system: MC38; experiment: Inhibition of HDAC in mouse MC38 cells assessed as increase in H3 acetylation at 0.1 to 10 uM measured by western blot analysis; type: cell-based; details: dose 0.1-10 µM
# [6] = system: CT26; experiment: Antiproliferative activity against mouse CT26 cells after 72 hrs by CCK-8 assay; type: functional
# [7] = system: MC-38; experiment: Antiproliferative activity against mouse MC38 cells after 72 hrs by CCK-8 assay; type: functional
# [8] = target: T3, Adenosine receptor A1 (Homo sapiens, UniProt P30542); experiment: Displacement of [3H]DPCPX from human A1AR incubated for 60 mins by scintillation counter analysis
# T3 sequence (P30542 whole entry): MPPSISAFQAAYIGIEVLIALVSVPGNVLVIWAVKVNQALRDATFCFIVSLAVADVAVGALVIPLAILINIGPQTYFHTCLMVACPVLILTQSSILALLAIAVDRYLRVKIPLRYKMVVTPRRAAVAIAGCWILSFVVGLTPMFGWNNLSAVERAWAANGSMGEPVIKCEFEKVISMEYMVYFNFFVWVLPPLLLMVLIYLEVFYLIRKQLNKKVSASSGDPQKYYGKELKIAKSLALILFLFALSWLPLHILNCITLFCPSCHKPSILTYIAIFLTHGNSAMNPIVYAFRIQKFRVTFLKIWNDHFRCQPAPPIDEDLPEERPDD
# [9] = target: Histone deacetylase 1 (Homo sapiens, UniProt Q13547); experiment: Inhibition of HDAC1 (unknown origin) using trypsin and LGK(Ac)-AMC as substrates incubated for 1 hr and measured by fluorescence assay
# [10] = target: T4, Adenosine receptor A3 (Homo sapiens, UniProt P0DMS8); experiment: Displacement of [3H]HEMADO from human A3AR incubated for 60 mins by scintillation counter analysis
# T4 sequence (P0DMS8 whole entry): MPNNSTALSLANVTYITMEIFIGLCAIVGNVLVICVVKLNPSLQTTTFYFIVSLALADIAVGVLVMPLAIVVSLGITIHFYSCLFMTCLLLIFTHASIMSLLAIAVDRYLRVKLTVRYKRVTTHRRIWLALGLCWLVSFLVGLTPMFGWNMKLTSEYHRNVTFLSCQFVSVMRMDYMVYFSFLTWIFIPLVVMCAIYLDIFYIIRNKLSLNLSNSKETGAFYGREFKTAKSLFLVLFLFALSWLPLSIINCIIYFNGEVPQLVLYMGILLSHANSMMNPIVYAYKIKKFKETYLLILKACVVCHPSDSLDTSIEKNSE
# [11] = target: Histone deacetylase 2 (Homo sapiens, UniProt Q92769); experiment: Inhibition of HDAC2 (unknown origin) using trypsin and LGK(Ac)-AMC as substrates incubated for 1 hr and measured by fluorescence assay
# [12] = target: T5, Protein deacetylase HDAC6 (Homo sapiens, UniProt Q9UBN7); experiment: Inhibition of HDAC6 (unknown origin) using trypsin and LGK(Ac)-AMC as substrates incubated for 1 hr and measured by fluorescence assay
# T5 sequence (Q9UBN7 whole entry): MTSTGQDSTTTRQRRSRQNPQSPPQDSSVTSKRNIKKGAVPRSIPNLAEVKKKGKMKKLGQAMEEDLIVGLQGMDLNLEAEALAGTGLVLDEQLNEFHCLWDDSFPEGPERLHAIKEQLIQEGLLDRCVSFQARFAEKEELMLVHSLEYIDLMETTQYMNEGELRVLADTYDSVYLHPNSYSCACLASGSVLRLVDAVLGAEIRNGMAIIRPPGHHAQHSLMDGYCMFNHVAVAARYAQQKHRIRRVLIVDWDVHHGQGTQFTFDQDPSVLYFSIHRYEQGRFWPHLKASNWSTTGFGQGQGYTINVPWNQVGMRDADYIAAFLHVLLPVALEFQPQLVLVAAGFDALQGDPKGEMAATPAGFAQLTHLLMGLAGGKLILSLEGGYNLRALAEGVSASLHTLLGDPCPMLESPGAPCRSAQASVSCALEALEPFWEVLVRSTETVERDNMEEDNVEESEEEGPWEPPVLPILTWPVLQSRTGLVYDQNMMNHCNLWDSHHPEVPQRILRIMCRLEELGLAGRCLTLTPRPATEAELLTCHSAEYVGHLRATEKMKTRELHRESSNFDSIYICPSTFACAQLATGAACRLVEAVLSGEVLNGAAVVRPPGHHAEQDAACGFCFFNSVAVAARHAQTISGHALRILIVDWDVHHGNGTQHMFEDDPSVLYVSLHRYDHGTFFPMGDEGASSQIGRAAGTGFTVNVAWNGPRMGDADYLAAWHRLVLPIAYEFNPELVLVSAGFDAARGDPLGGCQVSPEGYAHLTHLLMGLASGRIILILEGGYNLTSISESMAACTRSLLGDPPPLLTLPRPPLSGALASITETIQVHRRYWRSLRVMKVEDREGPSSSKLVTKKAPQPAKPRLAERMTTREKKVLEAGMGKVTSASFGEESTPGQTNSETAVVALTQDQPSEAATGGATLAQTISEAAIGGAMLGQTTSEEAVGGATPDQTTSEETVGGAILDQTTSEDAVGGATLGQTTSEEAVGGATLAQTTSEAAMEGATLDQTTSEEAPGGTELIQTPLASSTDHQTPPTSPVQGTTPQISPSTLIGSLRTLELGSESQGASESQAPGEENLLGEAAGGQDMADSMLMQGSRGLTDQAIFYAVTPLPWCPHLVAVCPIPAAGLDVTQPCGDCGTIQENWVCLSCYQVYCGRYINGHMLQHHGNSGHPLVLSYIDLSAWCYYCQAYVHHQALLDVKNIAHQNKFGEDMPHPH
# [13] = system: MC38; experiment: Inhibition of HDAC in mouse MC38 cells assessed as increase in H4 acetylation at 0.1 to 10 uM measured by western blot analysis; type: cell-based; details: dose 0.1-10 µM
# Sequence of Adenosine receptor A2a (P29274 whole entry): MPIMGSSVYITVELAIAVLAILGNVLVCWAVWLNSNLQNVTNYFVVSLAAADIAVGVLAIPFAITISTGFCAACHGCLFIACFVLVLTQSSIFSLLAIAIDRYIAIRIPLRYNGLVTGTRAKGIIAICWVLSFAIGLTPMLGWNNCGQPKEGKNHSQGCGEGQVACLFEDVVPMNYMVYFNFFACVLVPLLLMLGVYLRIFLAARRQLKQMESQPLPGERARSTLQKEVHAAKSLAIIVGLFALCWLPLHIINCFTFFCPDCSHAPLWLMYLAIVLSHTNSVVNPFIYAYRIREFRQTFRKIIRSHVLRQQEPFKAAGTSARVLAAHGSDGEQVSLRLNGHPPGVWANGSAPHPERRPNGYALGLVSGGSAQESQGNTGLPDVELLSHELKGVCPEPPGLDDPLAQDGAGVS
# Sequence of Histone deacetylase 1 (Q13547 whole entry): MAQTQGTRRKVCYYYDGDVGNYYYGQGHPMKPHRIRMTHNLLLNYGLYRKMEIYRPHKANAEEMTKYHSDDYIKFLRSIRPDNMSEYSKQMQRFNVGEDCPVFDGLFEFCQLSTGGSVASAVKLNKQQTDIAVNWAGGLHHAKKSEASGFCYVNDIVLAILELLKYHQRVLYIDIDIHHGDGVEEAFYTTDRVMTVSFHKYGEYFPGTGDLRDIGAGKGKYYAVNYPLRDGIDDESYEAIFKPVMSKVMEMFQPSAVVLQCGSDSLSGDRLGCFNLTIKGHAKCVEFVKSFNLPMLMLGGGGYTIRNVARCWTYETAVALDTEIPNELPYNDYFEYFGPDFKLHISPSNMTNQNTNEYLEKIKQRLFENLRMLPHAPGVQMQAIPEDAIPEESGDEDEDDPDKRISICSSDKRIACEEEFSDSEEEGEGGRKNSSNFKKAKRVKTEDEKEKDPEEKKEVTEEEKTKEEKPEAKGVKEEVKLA
# Sequence of Histone deacetylase 2 (Q92769 whole entry): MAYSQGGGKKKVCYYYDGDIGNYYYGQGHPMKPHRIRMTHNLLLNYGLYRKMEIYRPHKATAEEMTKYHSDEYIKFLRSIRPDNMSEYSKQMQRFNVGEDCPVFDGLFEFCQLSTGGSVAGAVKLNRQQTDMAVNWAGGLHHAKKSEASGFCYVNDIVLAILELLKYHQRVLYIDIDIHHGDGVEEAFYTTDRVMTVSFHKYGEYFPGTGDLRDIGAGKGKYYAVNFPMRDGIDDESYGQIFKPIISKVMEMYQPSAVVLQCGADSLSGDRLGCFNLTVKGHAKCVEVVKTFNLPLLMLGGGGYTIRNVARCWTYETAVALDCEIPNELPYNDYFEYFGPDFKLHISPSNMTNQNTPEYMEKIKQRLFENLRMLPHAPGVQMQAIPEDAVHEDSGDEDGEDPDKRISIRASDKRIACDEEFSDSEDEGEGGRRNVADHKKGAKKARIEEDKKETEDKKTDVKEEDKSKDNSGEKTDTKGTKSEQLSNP
# Sequence of Histone deacetylase 3 (O15379 whole entry): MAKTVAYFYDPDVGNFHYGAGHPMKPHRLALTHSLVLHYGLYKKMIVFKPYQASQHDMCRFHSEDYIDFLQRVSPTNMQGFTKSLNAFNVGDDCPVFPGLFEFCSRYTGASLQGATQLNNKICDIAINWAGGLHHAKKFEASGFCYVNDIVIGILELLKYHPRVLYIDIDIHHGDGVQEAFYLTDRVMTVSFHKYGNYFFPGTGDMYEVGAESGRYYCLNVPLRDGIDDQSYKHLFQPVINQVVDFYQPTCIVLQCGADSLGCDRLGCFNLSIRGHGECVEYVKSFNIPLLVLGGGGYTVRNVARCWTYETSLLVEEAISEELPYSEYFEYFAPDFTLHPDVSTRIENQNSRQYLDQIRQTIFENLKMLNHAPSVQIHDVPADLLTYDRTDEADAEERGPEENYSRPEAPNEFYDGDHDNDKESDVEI
structure (smiles),measurement,setting,value
Nc1nc(-c2ccco2)c2cnn(Cc3cccc(OCCCCCCC(=O)NO)c3)c2n1,Ki,[1],10.3 nM
same,Ki,[2],513 nM
same,IC50,[3],13.6 nM
same,IC50,[4],1410 nM
same,inhibition,[5],Active
same,GI50,[6],12600 nM
same,GI50,[7],12200 nM
same,Ki,[8],106 nM
same,IC50,[9],18.5 nM
same,Ki,[10],> 10000 nM
same,IC50,[11],16 nM
same,IC50,[12],2.1 nM
same,inhibition,[13],Active
